In patent US6103709A (priority 1998, dated 2000):
Entries after “also recorded” stand apart in the source; their conditions may differ.

Columns and labels:
[1] = test system: vitamin D-deficient chick; experiment: Intestinal Ca2+ absorption (ICA) in vitamin D-deficient chick; assay type: in vivo; conditions: relative to 100 pmol 1α,25(OH)2 D3 = 100%; i.m., 12 h before assay
[2] = test system: VDRnuc; experiment: Genomic response (summary classification); conditions: Yes/No, Tables 1 and 6
[3] = test system: intestinal Ca2+ transport in perfused chick duodena (transcaltachia); experiment: Transcaltachia assay (rapid stimulation of 45Ca2+ transport in perfused duodena); conditions: for Rapid Trans-Caltachia, relative to 1α,25(OH)2 D3: 1α,25(OH)2 D3 = 100; for stimulation of transcaltachia (in words, FIG. 11): perfusion with 300 pM or 650 pM analog, reference 650 pM 1α,25(OH)2 D3, within first four minutes
Protocol: Duodenal loops from normal, vitamin D-replete chicks were lumenally perfused with ^45 Ca^2+ (5 uCi/ml of buffer). To establish basal transport rates, celiac artery of controls were perfused with control medium for the first 20 min. The duodena were then either re-exposed to control medium containing the vehicle ethanol (0.005%, final concentration) through the celiac artery, or vascularly perfused with 300 pM or 650 pM agonist analogs JM or JN or with 650 pM of a control reference compound 1α,25(OH)2 D3. The venous effluent was collected at 2 min intervals for liquid scintillation spectrophotometry of the ^45 Ca^2+. […] Values represent mean ±SEM for n=4 in each group.
The data shown in FIG. 13 are the mean ±SEM from 4-5 duodena. […] Open circles represent the negative control receiving no treatment with 1α,25(OH)2 D3 or analog. […] Data represent the ratio of treated to basal values ±SEM extracted from a time-course plot (as in panel A) at 32 minutes.
This example describes the assay used for testing rapid response transcaltachia described in J. Biol. Chem, 268: 13811-13819 (1993).
White Leghorn cockerels (Hyline International, Lakeview, Calif.) were obtained on the day of hatch and maintained on a vitamin D-supplemented diet (1.0% calcium and 1.0% phosphorus; O. H. Kruse Grain and Milling, Ontario, Calif.) for 5-6 weeks to prepare normal vitamin D3 -replete chicks for use in the transcaltachia studies.
Measurements of ^45 Ca^2+ transport were carried out in perfused chick duodena. Normal vitamin D-replete chicks weighing approximately 500 g were anesthetized with 0.3 ml per 100 g Chloropent (Fort Dodge, Iowa), and the duodenal loop was surgically exposed. The celiac vein and blood vessels branching off from the celiac artery were ligated before cannulation of the celiac artery itself, and vascular perfusion was immediately initiated. Both the celiac artery and vein of the duodena were perfused with modified Grey's balanced salt solution (GBSS) +0.9 mM Ca which was oxygenated with 95% O2 and 5% CO2. A basal transport rate was established by perfusion with control medium for 20 minutes after the intestinal lumen was filled with ^45 Ca^2+. The tissue was then exposed to 1α,25(OH)2 D3 or analogs or reexposed to control medium for an additional 40 minutes. The vascular perfusate was collected at 2 min intervals during the last 10 min of the basal and during the entire treatment period. Duplicate 100 μl aliquots were taken for determination of the ^45 Ca^2+ levels by liquid scintillation spectrometry.

[4] = test system: vitamin D-deficient chick; experiment: Bone Ca2+ mobilizing activity (BCM) in vitamin D-deficient chick; assay type: in vivo; conditions: relative to 100 pmol 1α,25(OH)2 D3 = 100%; i.m., 12 h before assay
[5] = test system: VDRmem; experiment: Rapid response (summary classification); conditions: for Rapid Response: Yes/No, Tables 1 and 6
[6] = test system: rapid responses (VDRmem); experiment: Antagonist function (summary classification); conditions: Yes/No, Tables 1 and 6

C=C1/C(=C\C=C2/CCC[C@]3(C)[C@@H]([C@H](C)CCCC(C)(C)O)CC[C@@H]23)C[C@@H](O)C[C@H]1O [HL] was tested, and the “Classic Vit D Responses ICA” value [1] was < 0.1%, the “Genomic Response” value [2] was “No” and the “transcaltachia caused by 1α,25(OH)2 D3 in presence of HL” value ([3]; HL 12 pM in combination with 1α,25(OH)2 D3 300 pM) was “particularly observable”. The “inhibition of 1α,25(OH)2 D3-stimulated transcaltachia” value (“inhibition” for short) ([3]; HL 60 pM in advance of 300 pM 1α,25(OH)2 D3) was “clear inhibition of transcaltachia”, the “inhibition” value ([3]; HL 400 pM, 1α,25(OH)2 D3 300 pM) was “clearly inhibited” and the “inhibition” value ([3]; HL administered before 1α,25(OH)2 D3 / FIG. 13 overall) was “almost completely inhibited; also recorded: potent ability of 1β,25(OH)2 D3 (HL) to block or antagonize”. For the same molecule, the “Classic Vit D Responses BCM” value [4] was < 0.3%, the “Rapid Response” value [5] was “No” and the Antagonist [6] was “Yes and blocks or inhibits the action of agonist for rapid responses”.

In the case of C[C@H](CCCC(C)(C)O)[C@H]1CC[C@H]2C3=CC=C4C[C@@H](O)C[C@H](O)[C@]4(C)[C@H]3CC[C@]12C [JM], the “Classic Vit D Responses ICA” value [1] is reported as 1.8%, the “Genomic Response” value [2] is reported as “No” and the “Rapid Trans-Caltachia, relative to 1α,25(OH)2 D3” value [3] is reported as 60%. For the same molecule, the “stimulation of transcaltachia (in words, FIG. 11)” value [3] was “comparable or better than the reference compound”, the “Classic Vit D Responses BCM” value [4] was 0.8% and the “genomic and/or rapid responses elicited (in words)” value [5] was “elicit solely rapid responses”. For the same molecule, the “Rapid Response” value [5] was “Yes” and the Antagonist [6] was “No”.

C[C@H](CCCC(C)(C)O)[C@H]1CC[C@H]2C3=CC=C4C[C@@H](O)C[C@H](O)[C@@]4(C)[C@@H]3CC[C@]12C [JN] was tested, and the “Classic Vit D Responses ICA” value [1] was 2.1%, the “Genomic Response” value [2] was “No” and the “Rapid Trans-Caltachia, relative to 1α,25(OH)2 D3” value [3] was 105%. The “stimulation of transcaltachia (in words, FIG. 11)” value [3] was “comparable or better than the reference compound”, the “Classic Vit D Responses BCM” value [4] was 1.0% and the “genomic and/or rapid responses elicited (in words)” value [5] was “elicit solely rapid responses”. For the same molecule, the “Rapid Response” value [5] was “Yes” and the Antagonist [6] was “No”.

C[C@H](CCCC(C)(C)O)[C@H]1CC[C@H]2C3=CC=C4C[C@@H](O)C[C@H](O)[C@@]4(C)[C@H]3CC[C@]12C [JO] was tested, and the “Classic Vit D Responses ICA” value [1] was 0.6%, the “Genomic Response” value [2] was “No” and the “Rapid Trans-Caltachia, relative to 1α,25(OH)2 D3” value [3] was 50%. The “Classic Vit D Responses BCM” value [4] was 0.03%, the “genomic and/or rapid responses elicited (in words)” value [5] was “elicit solely rapid responses” and the “Rapid Response” value [5] was “Yes”. The Antagonist [6] was “No”.

C[C@H](CCCC(C)(C)O)[C@H]1CC[C@H]2C3=CC=C4C[C@@H](O)C[C@H](O)[C@]4(C)[C@@H]3CC[C@]12C [JP] was tested, and the “Classic Vit D Responses ICA” value [1] was 0.5%, the “Genomic Response” value [2] was “No” and the “Rapid Trans-Caltachia, relative to 1α,25(OH)2 D3” value [3] was 60%. The “Classic Vit D Responses BCM” value [4] was 0.8%, the “genomic and/or rapid responses elicited (in words)” value [5] was “elicit solely rapid responses” and the “Rapid Response” value [5] was “Yes”. The Antagonist [6] was “No”.
